Read-outs that look alike come from different tables or passages of the source.

The subject of test [1] is Fibrosarcoma Meth A. The test can be described thus: Test Method B: intrapleurally inoculated Meth A tumor in mice, injection into pleural cavity, mean survival time. The format is in vivo, BALB/c mice. Further details: dose or concentration left out as unconfirmed. Particulars: for Anti-tumor activity (%) *d: comparison of mean survival time of medicated group (T) and control group (C), into pleural cavity three times; for Mean survival time: into pleural cavity three times (before 14 days, after 1 hour and after 3 days of tumor implantation), 5 x 10^5 Meth A cells intrapleurally.
Method: Groups of eight female BALB/c mice, aged 8-9 weeks and weighing 18.0-22.5 g were used.
Fibrosarcoma Meth A (hereinafter referred to as Meth A) was successively transferred every 7 days into BALB/c mice by intraperitoneal inoculation of the ascites cells thereof and the Meth A in the ascites cells as harvested 6 or 7 days after the inoculation was used as tumor cells.
Each of the BALB/c mice was inoculated intrapleurally with 5 x 10^5 Meth A cells in 0.1 ml Hanks solution.
Test compound was dissolved in phosphate buffer saline solution, and was injected into pleural cavity to each of the mice in doses of 100 pg/0.05 ml/mouse three times, i.e. before 14 days, after 1 hour and after 3 days of tumor implantation.
The antitumor activity of the test compound was estimated by comparing mean survival time of the two groups. • T : Mean survival time of the medicated group • C : Mean survival time of the control group

For test [2], the system named is Fibrosarcoma Meth A. The test can be described thus: Test Method A: intradermally inoculated Meth A tumor in mice, intratumoral injection of test compound, tumor growth inhibition. The format is in vivo, BALB/c mice. Particulars: 100 µg/mouse intratumorally once daily from Day 1 to Day 4 postimplant; for Mean of two diameters of the growing tumor: 1 x 10^5 Meth A cells intradermally; for responders at 0.1 mg / inhibition in vivo at 0.1 mg: Meth-A; for responders at 0.1 mg: read-out: Ratio of tumor free mice [Number of tumor free mice/ Number of mice used as a group] (converted); for inhibition in vivo at 0.1 mg: Mus musculus, read-out: Tumor growth inhibition (%) [(1-T/c)x100]. The protocol: Groups of six female BALB/c mice, aged 12 weeks and weighing 19 - 21 g were used.
Fib,rosarcoma Meth A (hereinafter referred to as Meth A) was successively transferred every 7 days into BALB/c mice by intraperitoneal inoculation of the ascites cells thereof and the Meth A in the ascites cells as harvested 6 days after the inoculation was used as tumor cells.
Each of the BALB/c mice was inoculated intradermally with 1 x 10^5 Meth A cells in 0.05 ml Hanks solution.
Test compound was dissolved in 0.5% methylcellulose saline solution, and was intratumorally injected to each of the mice in doses of 100 µg/mouse once daily from Day 1 to Day 4 postimplant.
The control group was given with a vehicle alone in the same way.
The antitumor effectiveness of the test compound was estimated by tumor growth inhibition (1-T/C). • T: Mean diameter of the growing tumor of the medicated group • C: Mean diameter of the growing tumor of the control group

As to `CCCCCCCCCCCCCCCCCCOCC(COP(=O)(O)OCCN1CCN(C)CC1)OC` (racemic) [3-(16), (rac)-1-O-Octadecyl-2-0-methyl-glycerol-3-[2-(4-methyl-l-piperazinyl)ethyl]phosphate], in the test on Fibrosarcoma Meth A [1], the “Anti-tumor activity (%) *d” value turned out to be 350% and the Mean survival time came to 21.0 days.

As for `CCCCCCCCCCCCCCCCCCOCC(COP(=O)([O-])OCC[n+]1cnn(C)c1)OC` (racemic) [3-(21), (rac)-1-0-Octadecyl-2-0-methyl-glycerol-3-[2-(1-methyl-1,2,4-triazol-4-io)ethyl]phosphate], in the test on Fibrosarcoma Meth A [2] (Day 14), the “Mean of two diameters of the growing tumor” value worked out at 0 mm, the responders at 0.1 mg was 100% and the inhibition in vivo at 0.1 mg stood at 100%. In the test on Fibrosarcoma Meth A [2] (Day 21), the “Ratio of tumor free mice [Number of tumor free mice/ Number of mice used as a group]” value (from here on “Ratio of tumor free mice”) is listed as 6/6, the “Mean of two diameters of the growing tumor” value worked out at 0 mm and the inhibition in vivo at 0.1 mg was found to be 100%.

`CCCCCCCCCCCCCCCCCCOCC(COP(=O)(O)OCCN1CCN(CCO)CC1)OC` (racemic) [3-(7), (rac)-1-0-Octadecyl-2-0-methyl-glycerol-3-[2-[4-(2-hydroxyethyl)-1-piperazinyl]ethyl]phosphate]: in the test with Fibrosarcoma Meth A [1], the “Anti-tumor activity (%) *d” value was 325% and the Mean survival time came out at 19.5 days.

As for `CCCCCCCCCCCCCCCCCCOCC(COP(=O)([O-])OCC[n+]1ccccc1)Sc1nncs1` (racemic) [8-(4), (rac)-1-0-Octadecyl-2-(1,3,4-thiadiazolyl-2-thio)-1,3-propanediol-3-[2-(1-pyridinio)ethyl]phosphate], in the test with Fibrosarcoma Meth A [1], the “Anti-tumor activity (%) *d” value came to 417% and the Mean survival time came out at 25.0 days.

Turning to `CCCCCCCCCCCCCCCCCCOCC(COP(=O)(O)OCCN1CCCCC1)OC` (racemic) [3-(14), (rac)-l-O-Octadecyl-2-0-methyl-glycerol-3-(2-piperidinoethyl)phosphate], in the test on Fibrosarcoma Meth A [1], the “Anti-tumor activity (%) *d” value was 325% and the Mean survival time was determined as 19.5 days.

For the compound `CCCCCCCCCCCCCCCCCCOCC(COP(=O)([O-])OCC[n+]1cccc(C(=O)OCC)c1)OC` (racemic) [3-(23), (rac)-1-0-Octadecyl-2-0-methyl-glycerol-3-[2-(3-ethoxycarbonyl-1-pyridinio)ethyl]phosphate], in the test with Fibrosarcoma Meth A [2] (Day 21), the “Ratio of tumor free mice” value is 3/6 and the inhibition in vivo at 0.1 mg was determined as 70%. In addition, in the test on Fibrosarcoma Meth A [2] (Day 14), the responders at 0.1 mg is 50% and the inhibition in vivo at 0.1 mg worked out at 77%.

In the case of `CCCCCCCCCCCCCCCCCCOCC(COP(=O)([O-])OCC[n+]1ccccc1)OCC` (racemic) [3-(19), (rac)-1-0-Octadecyl-2-0-ethyl-glycerol-3-[2-(1-pyridinio)ethyl]phosphate], in the test on Fibrosarcoma Meth A [1], the “Anti-tumor activity (%) *d” value came to 317% and the Mean survival time stood at 19.0 days.

For `CCCCCCCCCCCCCCCCCCOCC(COP(=O)([O-])OCC[n+]1ccccc1)NC(=O)OCC` (racemic) [10-(6), (rac)-1-0-Octadecyl-2-ethoxycarbonylamino-1,3-propanediol-3-[2-(1-pyridinio)ethyl]phosphate], in the test on Fibrosarcoma Meth A [1], the “Anti-tumor activity (%) *d” value is on record as below 400% and the Mean survival time was determined as 24.0 days.

Regarding `CCCCCCCCCCCCCCCCCCOCC(COP(=O)([O-])OCC[n+]1cccc(C)c1)OC` (racemic) [3-(10), (rac)-1-0-Octadecyl-2-0-methyl-glycerol-3-(2-(3-methyl-1-pyridinio)ethyl]phosphate], in the test on Fibrosarcoma Meth A [1], the “Anti-tumor activity (%) *d” value is 364% and the Mean survival time stood at 25.5 days.

As for `CCCCCCCCCCCCCCCCCCOCC(COP(=O)([O-])OCC[n+]1cccn1C)OC` (racemic) [3-(18), (rac)-1-0-Octadecyl-2-0-methyl-glycerol-3-[2-(1-methyl-2-pyrazolio)ethyl]phosphate], in the test with Fibrosarcoma Meth A [1], the “Anti-tumor activity (%) *d” value amounted to 325% and the Mean survival time is 19.5 days.

Regarding `CCCCCCCCCCCCCCCCCCOCCCOP(=O)([O-])OCC[n+]1ccccc1` [3-(29), (rac)-1-0-Octadecyl-1,3-propanediol-3-[2-(1-pyridinio)-ethyl]phosphate], in the test on Fibrosarcoma Meth A [1], the “Anti-tumor activity (%) *d” value was determined as 264% and the Mean survival time was determined as 18.5 days.

Take `CCCCCCCCCCCCCCCCCCOCC(COP(=O)([O-])OCC[N+](C)(C)C)OC` (racemic) [*e, reference compound]: in the test with Fibrosarcoma Meth A [1], the “Anti-tumor activity (%) *d” value is recorded as 242% and the Mean survival time is 14.5 days.

Consider `CCCCCCCCCCCCCCCCCCOCC(COP(=O)([O-])OCC[n+]1ccn(C)c1)OC` (racemic) [3-(25), (rac)-1-0-Octadecyl-2-0-methyl-glycerol-3-[2-(1-methyl-3-imidazolio)ethyl]phosphate], for which, in the test with Fibrosarcoma Meth A [2] (Day 21), the “Ratio of tumor free mice” value is 5/6 and the inhibition in vivo at 0.1 mg amounted to 93%. Besides, in the test on Fibrosarcoma Meth A [2] (Day 14), the responders at 0.1 mg is 83.3% and the inhibition in vivo at 0.1 mg came to 94%.

Turning to `CCCCCCCCCCCCCCCCCCOCC(COP(=O)([O-])OCC[n+]1ccccc1)NC(=O)NC` (racemic) [11-(2), (rac)-1-0-Octadecyl-2-(N'-methylureido)-1,3-propanediol-3-[2-(l-pyridinio)ethyl]phosphate], in the test on Fibrosarcoma Meth A [1], the “Anti-tumor activity (%) *d” value came out at 350% and the Mean survival time came to 21.0 days.

In the case of `CCCCCCCCCCCCCCCCCCOCC(O)COP(=O)([O-])OCC[n+]1ccccc1` (racemic) [3-(30), (rac)-1-0-Octadecyl-glycerol-3-[2-(1-pyridinio)ethyl]-phosphate], in the test with Fibrosarcoma Meth A [2] (Day 21), the “Ratio of tumor free mice” value is given as 4/6 and the inhibition in vivo at 0.1 mg was 84%. Further, in the test on Fibrosarcoma Meth A [2] (Day 14), the responders at 0.1 mg was 66.7% and the inhibition in vivo at 0.1 mg stood at 85%.

`CCCCCCCCCCCCCCCCCCOCC(COP(=O)([O-])OCC[n+]1ccsc1)OC` (racemic) [3-(22), (rac)-1-O-Octadecyl-2-0-methyl-glycerol-3-[2-(3-thiazolio)ethyl]phosphate]: in the test on Fibrosarcoma Meth A [2] (Day 21), the “Ratio of tumor free mice” value was 3/6 and the inhibition in vivo at 0.1 mg amounted to 68%. Besides, in the test on Fibrosarcoma Meth A [2] (Day 14), the responders at 0.1 mg was 50% and the inhibition in vivo at 0.1 mg was 77%.

Turning to “(rac)-1-O-Octadecyl-2-0-methyl-glycerol-3-[2-(N-methyl-4-morpholino)ethyl]phosphate [3-(15)]”, in the test on Fibrosarcoma Meth A [1], the “Anti-tumor activity (%) *d” value worked out at 433% and the Mean survival time was 26.0 days.

As to `CCCCCCCCCCCCCCCCOCC(COP(=O)([O-])OCC[n+]1ccccc1)OCc1ccccc1` (racemic) [3-(26), (rac)-l-0-Hexadecyl-2-0-benzyl-glycerol-3-[2-(l-pyridinio)ethyl]phosphate], in the test with Fibrosarcoma Meth A [1], the “Anti-tumor activity (%) *d” value is listed as above 650% and the Mean survival time is above 39.0 days.

As for `CCCCCCCCCCCCCCCCCCOCC(COP(=O)(O)OCCN1CCN(CC)CC1)OC` (racemic) [3-(3), (rac)-1-0-Octadecyl-2-0-methyl-glycerol-3-[2-(4-ethyl-l-piperazinyl)ethyl]phosphate], in the test with Fibrosarcoma Meth A [1], the “Anti-tumor activity (%) *d” value is 317% and the Mean survival time was determined as 19.0 days.

Regarding `CCCCCCCCCCCCCCCCOCC(COP(=O)(O)OCCN1CCN(C)CC1)OC` (racemic) [3-(2), (rac)-1-0-Hexadecyl-2-0-methyl-glycerol-3-[2-(4-methyl-l-piperazinyl)ethyl]phosphate], in the test with Fibrosarcoma Meth A [1], the “Anti-tumor activity (%) *d” value worked out at 350% and the Mean survival time is 21.0 days.

Turning to `CCCCCCCCCCCCCCCCCCOCC(COP(=O)([O-])OCC[n+]1ccc(C)cc1)OC` (racemic) [3-(9), (rac)-1-0-Octadecyl-2-0-methyl-glycerol-3-[2-(4-methyl-l-pyridinio)ethyl]phosphate], in the test on Fibrosarcoma Meth A [1], the “Anti-tumor activity (%) *d” value amounted to 350% and the Mean survival time was 21.0 days.

On to `CCCCCCCCCCCCCCCCCCOCC(COP(=O)(O)OCCn1ccnc1)OC` (racemic) [3-(13), (rac)-1-0-Octadecyl-2-0-methyl-glycerol-3-[2-(1-imidazolyl)ethyl]phosphate], for which, in the test on Fibrosarcoma Meth A [2] (Day 21), the “Ratio of tumor free mice” value is listed as 0/6 and the inhibition in vivo at 0.1 mg is 31%. In the test on Fibrosarcoma Meth A [2] (Day 14), the responders at 0.1 mg is 0% and the inhibition in vivo at 0.1 mg stood at 37%.

For the compound `CCCCCCCCCCCCCCCCCCOCC(Cl)COP(=O)([O-])OCC[n+]1ccccc1` (racemic) [9-(4), (rac)-1-0-Octadecyl-2-chloro-1,3-propanediol-3-[2-(1-pyridinio)ethyl]phosphate], in the test with Fibrosarcoma Meth A [2] (Day 21), the “Ratio of tumor free mice” value is given as 4/6 and the inhibition in vivo at 0.1 mg came to 86%. Moreover, in the test with Fibrosarcoma Meth A [2] (Day 14), the responders at 0.1 mg is 66.7% and the inhibition in vivo at 0.1 mg stood at 92%.

Take `CCCCCCCCCCCCCCCCCCOCC(COP(=O)([O-])OCCNC(=O)C[n+]1ccccc1)OC` (racemic) [5-(2), (rac)-1-0-Octadecyl-2-0-methyl-glycerol-3-[2-(1-pyridinioacetylamino)ethyl]phoshate]: in the test on Fibrosarcoma Meth A [1], the “Anti-tumor activity (%) *d” value was 364% and the Mean survival time worked out at 25.5 days.

These data come from EP0071892A2, “Phospholipid derivatives, process for preparation thereof and pharmaceutical composition of the same” (priority 1981, dated 1983).
